Experiment: mn = molality of the nth substance listed, in mol/kg
Settings: 101 kPa, Liquid, Alternating current cell with electrodes

CCCCCCCC[N+](C)(C)CCCCCCCCCCCC[N+](C)(C)CCCCCCCC.[Br-].[Br-] + O
Settings | electrical conductivity [S/m]
308.15 K, m1 = 0.01941 | 0.3482
308.15 K, m1 = 0.02017 | 0.3578
308.15 K, m1 = 0.02093 | 0.3674
308.15 K, m1 = 0.02167 | 0.3751
308.15 K, m1 = 0.0224 | 0.3838
308.15 K, m1 = 0.02312 | 0.3913
308.15 K, m1 = 0.02383 | 0.4003
308.15 K, m1 = 0.02453 | 0.4069
308.15 K, m1 = 0.02522 | 0.4161
308.15 K, m1 = 0.02589 | 0.421
308.15 K, m1 = 0.02722 | 0.4336
308.15 K, m1 = 0.02787 | 0.4365
308.15 K, m1 = 0.02851 | 0.4424
308.15 K, m1 = 0.02956 | 0.4571
308.15 K, m1 = 0.03058 | 0.4621
308.15 K, m1 = 0.03158 | 0.4749
308.15 K, m1 = 0.03256 | 0.48
308.15 K, m1 = 0.03351 | 0.489
308.15 K, m1 = 0.03536 | 0.5074
308.15 K, m1 = 0.03625 | 0.5158
308.15 K, m1 = 0.03712 | 0.5223
308.15 K, m1 = 0.03798 | 0.527
308.15 K, m1 = 0.03964 | 0.541
308.15 K, m1 = 0.04123 | 0.5548
308.15 K, m1 = 0.04275 | 0.5671
308.15 K, m1 = 0.04422 | 0.5777
308.15 K, m1 = 0.04563 | 0.5885
308.15 K, m1 = 0.04699 | 0.5986
308.15 K, m1 = 0.04829 | 0.6068
308.15 K, m1 = 0.05077 | 0.6251
308.15 K, m1 = 0.05194 | 0.6322
313.15 K, m1 = 0.00357 | 0.06951
313.15 K, m1 = 0.00692 | 0.1517
313.15 K, m1 = 0.01009 | 0.2177
313.15 K, m1 = 0.01308 | 0.2687
313.15 K, m1 = 0.01591 | 0.3262
313.15 K, m1 = 0.01726 | 0.3465
313.15 K, m1 = 0.01859 | 0.3645
313.15 K, m1 = 0.01987 | 0.3859
313.15 K, m1 = 0.02113 | 0.4024
313.15 K, m1 = 0.02187 | 0.4121
313.15 K, m1 = 0.02259 | 0.4248
313.15 K, m1 = 0.02331 | 0.4317
313.15 K, m1 = 0.02401 | 0.4367
313.15 K, m1 = 0.02471 | 0.4441
313.15 K, m1 = 0.02539 | 0.4521
313.15 K, m1 = 0.02606 | 0.4597
313.15 K, m1 = 0.02673 | 0.467
313.15 K, m1 = 0.02803 | 0.4808
313.15 K, m1 = 0.02866 | 0.4878
313.15 K, m1 = 0.02929 | 0.4944
313.15 K, m1 = 0.03052 | 0.5075
313.15 K, m1 = 0.03112 | 0.5138
313.15 K, m1 = 0.03171 | 0.5209
313.15 K, m1 = 0.0323 | 0.5266
313.15 K, m1 = 0.03326 | 0.5361
313.15 K, m1 = 0.03419 | 0.5442
313.15 K, m1 = 0.03511 | 0.5535
313.15 K, m1 = 0.036 | 0.5625
313.15 K, m1 = 0.03688 | 0.5732
313.15 K, m1 = 0.03774 | 0.5794
313.15 K, m1 = 0.03858 | 0.5898
313.15 K, m1 = 0.0394 | 0.5956
313.15 K, m1 = 0.041 | 0.6125
313.15 K, m1 = 0.04253 | 0.6257
313.15 K, m1 = 0.044 | 0.637
313.15 K, m1 = 0.04541 | 0.6512
313.15 K, m1 = 0.04678 | 0.665
313.15 K, m1 = 0.04809 | 0.6744
313.15 K, m1 = 0.04935 | 0.6838
313.15 K, m1 = 0.05057 | 0.6958
313.15 K, m1 = 0.05175 | 0.7055
318.15 K, m1 = 0.00371 | 0.07542
318.15 K, m1 = 0.00722 | 0.164
318.15 K, m1 = 0.01052 | 0.245
318.15 K, m1 = 0.01364 | 0.3143
318.15 K, m1 = 0.01659 | 0.3687
